Source: US7560229B2, “Methods of use of the enzymes of mycothiol synthesis” (priority 2002, dated 2009)
Values joined by “and” are separate entries in the source; they are usually repeats but may differ in a detail not shown here. Equal entries are not always repeated. Where two headings read alike, the source gives them in different places. Marks after values point to notes of the source that are not given here.

Assays:
[1] = target: T1, M. tuberculosis MshC (Cys:GlcN-Ins ligase) (Mycobacterium tuberculosis, UniProt P9WJM9); settings: for activity as alternative substrate to Cys: 80 μM to 1.6 mM
[2] = target: T1, M. tuberculosis MshC (Cys:GlcN-Ins ligase); format: biochemical; settings: 2, 10, 50 or 100 μM zinc chloride, FIG. 16
N[C@@H](CS)C(=O)O = assay: purified protein, by the assay type; settings: 37.0 °C
[3] = target: T1, M. tuberculosis MshC (Cys:GlcN-Ins ligase); format: biochemical
[4] = system: M. smegmatis MSH deficient mutants (Tn1, Tn2, I64); format: cell-based
[5] = target: T1, M. tuberculosis MshC (Cys:GlcN-Ins ligase); format: biochemical; settings: 0.1-5 mM, FIG. 16

T1 sequence (P9WJM9 whole entry): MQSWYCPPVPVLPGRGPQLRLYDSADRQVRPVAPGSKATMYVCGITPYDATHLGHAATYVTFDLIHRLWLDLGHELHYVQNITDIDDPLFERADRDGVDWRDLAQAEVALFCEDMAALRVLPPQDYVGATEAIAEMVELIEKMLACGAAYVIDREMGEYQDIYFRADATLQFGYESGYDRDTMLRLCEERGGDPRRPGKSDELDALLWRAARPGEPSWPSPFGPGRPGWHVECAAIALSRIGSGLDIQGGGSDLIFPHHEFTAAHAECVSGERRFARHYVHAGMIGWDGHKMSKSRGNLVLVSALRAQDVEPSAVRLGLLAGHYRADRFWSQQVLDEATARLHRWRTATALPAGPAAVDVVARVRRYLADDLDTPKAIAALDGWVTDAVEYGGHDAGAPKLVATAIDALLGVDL

| Compound | relative spec. act. [1] | inhibition of ligase activity [3] | activity as alternative substrate to Cys [1] | other results |
| --- | --- | --- | --- | --- |
| N[C@H]1C(O)O[C@H](CO)[C@@H](O)[C@@H]1O (stereo partly drawn) [D-GlcN, D-glucosamine] | 1.2 | – | – | activity relative to GlcN-Ins [1]: ~1% |
| [Cl-].[Cl-].[Zn+2] [Zn^2+, zinc chloride] | – | – | – | effect of supplementation on enzyme activity [2]: loss in activity |
| M. tuberculosis MshC (Cys:GlcN-Ins ligase) (Mycobacterium tuberculosis H37Rv) | – | – | – | Km (N[C@@H](CS)C(=O)O): 70 ± 15 µM and 85 ± 20 µM |
| N[C@H]1[C@@H](OC2[C@H](O)[C@H](O)C(O)[C@H](O)[C@H]2O)O[C@H](CO)[C@@H](O)[C@@H]1O (stereo partly drawn) [GlcN-Ins, 1D-myo-inosityl 2-amino-2-deoxy-α-D-glucopyranoside] | – | – | – | apparent Vmax (GlcN-Ins varied) [1]: 1160 ± 120 nmol/min/mg; Km ([1]; read-out: apparent Km for GlcN-Ins): 280 ± 43 µM |
| NCCS [cysteamine] | ≦0.16 | best inhibitor | Neither β-mercaptopropionic acid nor cysteamine, derived from Cys by removal of the amino and carboxyl groups, respectively, produced evidence of reaction | reduction in rate [3]: 3 fold |
| NC(=O)c1cnccn1 [pyrazinamide] | – | – | – | difference in sensitivity between mutants [4]: no significant difference |
| O=C(O)CCS [β-mercaptopropionate, β-mercaptopropionic acid] | ≦0.004 | minor inhibition | Neither β-mercaptopropionic acid nor cysteamine, derived from Cys by removal of the amino and carboxyl groups, respectively, produced evidence of reaction | – |
| N[C@H](CS)C(=O)O [D-Cys] | ≦0.7 | Only very minor inhibition | poor substrate | % inhibition [3]: 15 ± 8% |
| CC(=O)N[C@@H](CS)C(=O)O [AcCys, N-acetylcysteine] | ≦0.24 | minor inhibition | Nor was significant activity detected | – |
| N[C@@H](CO)C(=O)O [L-serine] | ≦0.008 | Only very minor inhibition | Nor was significant activity detected | – |
| N[C@@H](CS)C(=O)N[C@H]1[C@@H](OC2[C@H](O)[C@H](O)C(O)[C@H](O)[C@H]2O)O[C@H](CO)[C@@H](O)[C@@H]1O (stereo partly drawn) [Cys-GlcN-Ins, 1D-myo-inosityl 2-L-cysteinylamido-2-deoxy-α-D-glucopyranoside] | – | – | – | inhibition [3]: < 1.0% |
| Nc1ncnc2c1ncn2[C@@H]1O[C@H](COP(=O)(O)OP(=O)(O)OP(=O)(O)O)[C@@H](O)[C@H]1O [ATP] | – | – | – | decline of reaction rate [1]: 2.2 fold |
| CC[C@@H](CO)NCCN[C@@H](CC)CO [ethambutol] | – | – | – | difference in sensitivity between mutants [4]: no significant difference |
| c1cnc2c(c1)ccc1cccnc12 [1,10-phenanthroline] | – | – | – | effect of metal chelation on enzyme activity [5]: no significant loss of activity |
| N[C@@H](CCS)C(=O)O [L-homocysteine] | ≦0.2 | Only very minor inhibition | Nor was significant activity detected | – |
| CC(=O)N[C@@H](CS)C(=O)N[C@H]1[C@@H](OC2[C@H](O)[C@H](O)C(O)[C@H](O)[C@H]2O)O[C@H](CO)[C@@H](O)[C@@H]1O (stereo partly drawn) [MSH, 1D-myo-inosityl 2-(N-acetylcysteinyl)amido-2-deoxy-α-D-glucopyranoside] | – | – | – | % inhibition [3]: 4 ± 3% and 7 ± 5%; inhibition of ligase activity ([3]; 1 and 5 mM, physiologic levels): minimal inhibition |
| N[C@@H](CS)C(=O)O [Cys, L-cysteine] | (100)^c | – | – | Specific activity [1]: ^cSpecific activity 108 nmol min^−1 mg^−1.; apparent Vmax (L-Cys varied) [1]: 1450 ± 200 nmol/min/mg |
| CC[C@H](N)C(=O)O [L-α-aminobutyric acid] | – | Only very minor inhibition | – | – |
| C[C@H](N)C(=O)O [L-alanine] | ≦0.016 | Only very minor inhibition | Nor was significant activity detected | – |
